Legend:
[1] = in vitro; parameters: Viability of infected HeLa host cells, resazurin conversion, bulk resorufin fluorescence relative to DMSO; conditions: human, hela cells; bulk resorufin, mean of 2
[2] = test system: T1, CTL2-GFP (C. trachomatis L2/434/Bu, GFP-expressing); test: microbe, parasite or virus in culture; parameters: Intracellular C. trachomatis growth in HeLa cells, bulk GFP fluorescence relative to DMSO; conditions: Chlamydia trachomatis, HeLa, 28.5 h; bulk GFP, mean of 2; read-out: % of control remaining
T1 construct: L2/434/Bu, GFP-expressing
Description: MICs were calculated as described above.

[3] = test system: T2, C. trachomatis L2/434/Bu expressing GFP (CTL2-GFP); test: microbe, parasite or virus in culture; parameters: C. trachomatis total inclusion area by high-content imaging, normalised to DMSO; conditions: Chlamydia trachomatis, HeLa, 28.5 h; total inclusion area; read-out: % of control remaining
T2 construct: L2/434/Bu GFP intracellular growth in HeLa cells
Method in brief: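 Read-out combines bulk fluorescence and imaging: GFP tracks chlamydial growth, resorufin tracks host cell viability. Plates were then fixed and Hoechst-stained so inclusions and nuclei could be imaged and counted per well.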

Row | Structure (SMILES) | viability at 28.5 h, 1 µM [1] | viability at 28.5 h, 5 µM [1] | viability at 28.5 h, 10 µM [1] | activity at 1 µM [2] | activity at 5 µM [2] | activity at 10 µM [2] | activity at 1 µM [3] | activity at 5 µM [3] | activity at 10 µM [3]
1 | Cc1ccc(C(=O)NCCCN2CCC3(CC2)OCCc2c3[nH]c3ccccc23)cc1 [CBK113485] | 86.4% | 88% | 78.1% | 114% | 80% | 21.4% | 88.7% | 33.7% | 5.52%
2 | COc1ccc([C@@]23CC[C@@H](NC(=O)c4ccc(-c5ccccc5)cc4)CC2N(C)CC3)cc1OC (some centres unmarked) [CBK074973T] | 93.9% | 94.3% | 87.1% | 113% | 78.4% | 39.7% | 118% | 93.3% | 31.1%
3 | O=C(CC1CCN(CCc2ccccc2)CC1)Nc1cccc(-n2cccn2)c1 [CBK285951] | 91.7% | 87.4% | 88.6% | 11.3% | 5.45% | 1.48% | 13.7% | 0.475% | 0.166%
4 | CN(C)CCCNC(=O)Nc1cccc(-c2nc(-c3ccc(C#N)cc3)cnc2N)c1 [CBK116287] | 104% | 89.1% | 97.5% | 102% | 71.8% | 14.2% | 116% | 66.5% | 4.68%
5 | COCCCNS(=O)(=O)c1ccc(-n2ncc(Cl)c(Cl)c2=O)cc1 [CBK305039] | 97.7% | 32.2% | 0% | 78.8% | 24.5% | 21.2% | 73.2% | 2.13% | –
6 | O=C(c1cccs1)N1C[C@H](c2ccc(F)cc2)[C@H]2CN(Cc3ccccc3)CC[C@H]21 [CBK285544] | 93.4% | 91.7% | 95.5% | 93.9% | 109% | 115% | 74.8% | 78.2% | 59.8%
7 | COc1ccc(S(=O)(=O)Nc2ccc(S(=O)(=O)Nc3nccs3)cc2)c([N+](=O)[O-])c1 [CBK266801] | 110% | 123% | 119% | 13.9% | 4.96% | 0% | 26.3% | 5.01% | 1.27%
8 | N=C(N)Nc1nc(-c2ccccc2)c2cc(F)ccc2n1 [CBK267350] | 107% | 111% | 105% | 93.6% | 64.3% | 16.8% | 90.4% | 64.6% | 12.8%
9 | O=C(NCCCn1ccnc1)c1cc(-c2ccc(Br)cc2)nc2ccccc12 [CBK262645] | 103% | 107% | 94.9% | 138% | 87.8% | 31.9% | 126% | 95.8% | 45.4%
10 | Cc1ccc2[nH]c(-c3cccc(NC(=O)c4cccc(CN5CCCC5=O)c4)c3)nc2c1 [CBK285838] | 93% | 83.3% | 87.6% | 137% | 94.9% | 34.2% | 125% | 91.8% | 48.2%
11 | CC(C)(C)c1cc(C(=O)Nc2ccncc2)n(Cc2ccc(Cl)cc2Cl)n1 [CBK107284] | 94.9% | 94% | 97.3% | 116% | 74.6% | 24.2% | 117% | 57.8% | 39.7%
12 | O=C(NCCCn1ccnc1)N1CCN(Cc2ccc(Cl)cc2)CC1 [CBK305894] | 90.1% | 93.5% | 89.5% | 143% | 148% | 147% | 118% | 87% | 78.9%
13 | Oc1c(CN2CCN(c3ccc(F)cc3)CC2)cc(Br)c2cccnc12 [CBK268051] | 96.2% | 97.9% | 92.4% | 113% | 46.4% | 37.8% | 119% | 33% | 37.5%
14 | CC(=O)NC[C@H]1CN(c2ccc3c(c2)CCN(C(=O)Cc2ccccc2)CC3)C(=O)O1 [CBK018499] | 92.9% | 95.9% | 92.1% | 37.5% | 2.41% | 5.46% | 38% | 0.495% | 0.215%
15 | CC(=O)NC[C@H]1CN(c2ccc3c(c2)CCN(C(=O)Oc2ccccc2)CC3)C(=O)O1 [CBK018498] | 98.7% | 94.2% | 97.3% | 125% | 13.7% | 1.02% | 72.8% | 12.5% | 3.33%
16 | CC(NC(C)(C)C)C(O)COc1ccc(Cl)c2c1C1CCC2CC1 (centres unmarked) [CBK017752C] | 90.2% | 95% | 92.2% | 125% | 126% | 66.4% | 68% | 78.7% | 17.5%
17 | CNC(=S)N1CCN(c2nsc3ccccc23)CC1 [CBK288515] | 98.8% | 96.2% | 101% | 4.18% | 3.58% | 5.68% | 0.93% | 0.381% | 0.417%
18 | Cc1cc(NS(=O)(=O)c2ccc(Nc3nc(-c4cccs4)cs3)cc2)no1 [CBK262504] | 86.5% | 92.2% | 88.4% | 96.7% | 25.1% | 15.9% | 112% | 45.8% | 19.5%
19 | C1=C(CCNCCc2ccccc2)c2ccccc2C12CCCC2 [CBK024723] | 96.5% | 89.8% | 97.2% | 137% | 49.2% | 3.86% | 112% | 42.8% | 0.759%
20 | CCc1nnc(NS(=O)(=O)c2ccc(NC(=S)Nc3ccc(F)cc3)cc2)s1 [CBK050037] | 98.2% | 89.3% | 93.2% | 72% | 22.8% | 13.7% | 98.5% | 26.5% | 17.6%
